Results: patent publication US6881824B1, “Peptides suitable for use in antigen specific immunosuppressive therapy” (Akzo Nobel N.V., priority 1996, dated 2005)
Ends that are not written are not given here.

What was measured:
[1] = biological target: T1, DR4 (DRB1*0401) molecules (Homo sapiens, UniProt P01903+P01911, A100K/A169T/F76Y/I96L/K127E/L162R/M171V/N62H/P40V/Q125Y/R42H/S133A/S149N/S66Y/V115G/V209L/W38E); experiment: Peptide HLA-DR binding assay (semi-quantitative competition binding); details: for IC50: Table IIIA, competition with biotinylated marker peptide HA 309 Y→F, pH5.0, 44 hr RT
T1 construct: molecules were purified from the homozygous EBV-transformed human B lymphoblastoid cell lines Huly138IC2 and BM92 using the mAb; endogenous in cells
Experimental: DR4 (DRB1*0401) and DR4 (DRB1*0404) molecules were purified from the homozygous EBV-transformed human B lymphoblastoid cell lines Huly138IC2 and BM92 using the mAb t243, directed against a monomorphic determinant on the DR-complex (Lampson, L. A and R. Levy (1980), J. Immunol. 125:293 299).
The peptide binding studies were performed using a semi-quantitative competition binding assay (Joosten et al 1994, Int. Immunol. 6, 751). Briefly, purified HLA-DR molecules (30 nM DR4(DRB1*0401) or 15 nM DR4 (DRB1*0404) were incubated at pH5.0 with 50 nM biotinylated marker peptide (HA 309y→F) and a concentration range of competitor peptide in a final volume of 25 μl binding buffer (PBS containing 0.01% […], 0.05% NP-40, 5% DMSO, 1 mM AEBSF, 1 mM N-ethyl maleimide, 8 mM EDTA and 10 μm pepstatin A). After 44 hr of incubation at RT, HLA DR bound marker peptide was separated from free marker peptide using a 96 well vacuum dotblot apparatus (Hybri. dot, BRL) and a nitrocellulose membrane (Hybond ECL, Amersham, UK). The nitrocellulose filters were blocked with 0.5% DNA blocking reagent (Boehringer) in 0.1 M maleic acid, 150 mM NaCl, pH7.5.
After 0.5-1 hr, the filters were washed in PBS, 0.05% Tween 20 (Sigma) and incubated with Strepcavidin-HRPO (Southern Biotechnology) in a 1:10.000 dilution. Biotinylated peptides were detected by enhanced chemiluminescence using a Western Blot ECL kit (Amersham). Exposure of the preflashed films (Hyperfilm-ECL, Amersham) was for 10 min. The spots were analysed by scanning the films and using Image Quant/Excel software for analysis.
The affinity of a given peptide for binding DRB1*0401-encoded molecules was related to competition with the marker peptide. This relative binding affinity was defined as the peptide concentration at which the signal was reduced to 50% (IC50).

[2] = system: PBMC from RA patients carrying the DR4 (DRB1*0401) specificity; experiment: Peptide-induced proliferative responses of PBMC from RA patients; format: cell-based, human; details: 100 and 10 microgram/ml, 7 days, 3H-thymidine incorporation; for Peptide-induced proliferative response of PBMC, RA 286: RA patient 286, 0401, R; for Peptide-induced proliferative response of PBMC, RA 191: RA patient 191, 0401, R
Experimental: This study included 7 DR4(DRB1*0401)-positive patients diagnosed as suffering from RA according to the ARA criteria (Arnett et al., (1988), Arthritis Rheum. 31, 315). Peripheral blood samples were obtained with informed consent. There were five women and two men aged 46-79 years. Their duration of disease ranged from over 10 to over 30 years. Three out of 7 patients had at least 3 swollen joints. […] All patients were on medication: Four patients were treated with prednisone, three patients received anti-rheumatic agents and 4 patients were treated with NSAID's as well.
In order to identify T-cell epitopes within HC gp-39, 59 peptides of 16 AA in length, overlapping by 10 AA were tested for their capacity to induce a proliferative response in PBMC from RA patients and healthy controls carrying the DR4 (DRB1*0401) specificity (Table 1).
PBMC obtained from heparinized venous peripheral blood were isolated by standard centrifugation on a Ficoll-Paque gradient. Cells were cultured in four-fold at a concentration of 1,5×10^5 cells/well in medium supplemented with 10% heat-inactivated, autologous plasma, L-glutamine, 2-ME and antibiotics in flatbottomed microtiter plates. Cells were incubated in medium alone or in the presence of phytohaemagglutinin (PHA) (2:5 μg/ml) to assert cell viability, or in the presence of 10 or 100 μg/ml of the HC gp-39-derived peptides. In several cases, sets of 2 or 3 sequential peptides were tested due to limited PBMC numbers of individual donors. Cultures were incubated in a total volume of 210 μl for 7 days at […] in a humidified atmosphere of 5% CO2. Cultures were pulsed during the last 18 hours with 0.25 μCi ^3H-thymidine ([^3H]TdR). Cells were harvested on glassfiber filters and [^3H] TdR incorporation was measured by gas scintillation (Packard Matrix 96 βcounter). Only peptides inducing a proliferative response at both 10 and 100 μg/ml were considered to contain a T-cell epitope. Responses were defined positive if stimulation index values (SI, antigen-specific counts per 5 min (cp5 m)/background cp5 m) exceeded or equaled 2.
T-cell reactivity to HC gp-39-derived peptide as analyzed by measuring the PBMC proliferative response in DR4 (DRB1*0401)-positive RA patients and healthy donors. Proliferative responses were tested in autologous plasma. In Table IIIA and IIIB the results of 7 experiments are presented showing the responses of RA patients (Table IIIA) and the responses of healthy donors (Table IIIB) to 59 overlapping sequences derived from HC gp-39.

[3] = biological target: T2, DR4 (DRB1*0401) molecules purified from the homozygous EBV-transformed human B lymphoblastoid cell line … (human, UniProt P01903 26-254); experiment: competition binding assay on purified DR4(DRB1*0401)
T2 construct: mature; That form is inferred from purification of the native complex

Molecule	Relative affinity of binding to DR4 (DRB1*0401), in words [1]	IC50 [1] [µM]	binding result [3]	other results
TIDSSYDIAKISQHLD [compound 28, TIDSSYDIAKISQHLD]	high to intermediate relative affinity	< 1		
PPFLRTHGFDGLDLAW [compound 18, PPFLRTHGFDGLDLAW]	high to intermediate relative affinity	10 to 100		Peptide-induced proliferative response of PBMC, RA 276 ([2]; RA patient 276, 0401, R): pos (positive responses to both 100 and 10 microgram/ml of peptide or sets of peptides (SI≧2 were regarded positive))
DFQGSFCGQDLRFPLT [compound 57, DFQGSFCGQDLRFPLT]	high to intermediate relative affinity	1 to 10		
HGFDGLDLAWLYPGRR [compound 19, HGFDGLDLAWLYPGRR]	high to intermediate relative affinity	10 to 100		
YREGDGSCFPDALDRF [peptide 3, YREGDGSCFPDALDRF]	high to intermediate relative affinity	10 to 100		
DLAWLYPGRRDKQHFT [peptide 20, DLAWLYPGRRDKQHFT]	poor relative affinity	100 to 1000		Peptide-induced proliferative response of PBMC, RA 286 [2]: pos (positive responses to both 100 and 10 microgram/ml of peptide or sets of peptides (SI≧2 were regarded positive))
GTLAYYEICDFLRGAT [compound 46, GTLAYYEICDFLRGAT]	high to intermediate relative affinity	< 1		
PASKLVMGIPTFGRSF [compound 39, PASKLVMGIPTFGRSF]	high to intermediate relative affinity	1 to 10		
NTQSRRTFIKSVPPFL [compound 16, NTQSRRTFIKSVPPFL]	high to intermediate relative affinity	< 1		Peptide-induced proliferative response of PBMC, RA 286 [2]: pos (positive responses to both 100 and 10 microgram/ml of peptide or sets of peptides (SI≧2 were regarded positive))
WALDLDDFQGSFCGQD [compound 56, WALDLDDFQGSFCGQD]	high to intermediate relative affinity	< 1		Peptide-induced proliferative response of PBMC, RA 191 [2]: pos (positive responses to both 100 and 10 microgram/ml of peptide or sets of peptides (SI≧2 were regarded positive)); Peptide-induced proliferative response of PBMC, RA 286 [2]: pos (positive responses to both 100 and 10 microgram/ml of peptide or sets of peptides (SI≧2 were regarded positive))
EICDFLRGATVHRTLG [compound 47, EICDFLRGATVHRTLG]	high to intermediate relative affinity	< 1		Peptide-induced proliferative response of PBMC, RA 191 [2]: pos (positive responses to both 100 and 10 microgram/ml of peptide or sets of peptides (SI≧2 were regarded positive))
DIAKISQHLDFISIMT [compound 29, DIAKISQHLDFISIMT]	high to intermediate relative affinity	< 1		Peptide-induced proliferative response of PBMC, RA 259 ([2]; RA patient 259, 0401, R): pos (positive responses to both 100 and 10 microgram/ml of peptide or sets of peptides (SI≧2 were regarded positive))
TFIKSVPPFLRTHGFD [compound 17, TFIKSVPPFLRTHGFD]	high to intermediate relative affinity	1 to 10		
VKSKVQYLKDRQLAGA [compound 53, VKSKVQYLKDRQLAGA]	high to intermediate relative affinity	< 1		
RGATVHRTLGQQVPYA [compound 48, RGATVHRTLGQQVPYA]	high to intermediate relative affinity	10 to 100		
YTSWSQYREGDGSCFP [HC gp-39 peptide 2 (residues 28-43)]			binds	
PNLKTLLSVGGWNFGS [HC gp-39 peptide 12 (residues 88-103)]			binds	

Molecule	Relative affinity of binding to DR4 (DRB1*0401), in words [1]	IC50 [1] [µM]	binding result [3]	other results
SPLFRGQEDASPDRFS [HC gp-39 peptide 34 (residues 220-235)]			binds	
MLRLGAPASKLVMGIP [HC gp-39 peptide 38 (residues 244-259)]			binds	
MGIPTFGRSFTLASSE [HC gp-39 peptide 40 (residues 256-271)]			binds	
GRSFTLASSETGVGAP [HC gp-39 peptide 41 (residues 262-277)]			binds	
LAGAMVWALDLDDFQG [HC gp-39 peptide 55 (residues 346-361)]			binds	
YREGDGSCFPDALDRF [HC gp-39 peptide 3 (residues 34-49)]			binds	
NTQSRRTFIKSVPPFL [HC gp-39 peptide 16 (residues 112-127)]			binds	
PPFLRTHGFDGLDLAW [HC gp-39 peptide 18 (residues 124-139)]			binds	
HGFDGLDLAWLYPGRR [HC gp-39 peptide 19 (residues 130-145)]			binds	
DLAWLYPGRRDKQHFT [HC gp-39 peptide 20 (residues 136-151)]			binds	
TIDSSYDIAKISQHLD [HC gp-39 peptide 28 (residues 184-199)]			binds	
DIAKISQHLDFISIMT [HC gp-39 peptide 29 (residues 190-205)]			binds	
PASKLVMGIPTFGRSF [HC gp-39 peptide 39 (residues 250-265)]			binds	
GTLAYYEICDFLRGAT [HC gp-39 peptide 46 (residues 292-307)]			binds	
EICDFLRGATVHRTLG [HC gp-39 peptide 47 (residues 298-313)]			binds	
RGATVHRTLGQQVPYA [HC gp-39 peptide 48 (residues 304-319)]			binds	
VKSKVQYLKDRQLAGA [HC gp-39 peptide 53 (residues 334-349)]			binds	
